According to patent publication US10519177B2, “Heterocyclic compounds and uses thereof” (Plexxikon Inc., priority 2013, dated 2019):
Like-named read-outs stand apart in the source and are kept apart here.

Assays:
MV-4-11 cells = test: Oncology cell growth assay MV-4-11 (CellTiter Glo); type: cell-based; conditions: Homo sapiens, MV4-11, 72 h, read-out: Cell activity (IC50 μM) MV-4-11 3d-Growth
Summary of the method: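 Growth read by CellTiter Glo luminescence after 72 h compound treatment of MLL-AF4-bearing MV-4-11 cells (3000/well). Titration: 8 points, 1:3 steps, maximum 10 μM, 0.2% DMSO final. Data normalized to DMSO wells, four-parameter fit gives pIC50.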

bromodomain = test: at least one of the bromodomain cell assays of Example 57; type: cell-based; conditions: at least one of the bromodomain cell assays described in Example 57; read-out: IC50 in at least one of the bromodomain cell assays
BRD4-BD12 (1-477) = BRD4-BD12 (1-477) (Homo sapiens (Human), UniProt O60885); test: Alphascreen binding assay BRD4-BD12; conditions: BRD4(1 2) H4; read-out: Biochemical activity (IC50 μM) BRD4(1 2) H4
Summary of the method: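 In this competition format, compounds displace a biotinylated tetra-acetyl H4 peptide from E. coli-expressed human BRD4 bromodomain constructs captured on nickel chelate beads. The reaction runs at pH 7.5 with 2 mM DTT and detergent for 1 h at room temperature before a 30 min bead step.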

Compound `Cc1noc(C)c1-c1cnc2c(-c3cnc(N)nc3)cn(CC3(F)CCCCC3)c2c1` [P-0473, 5-[6-(3,5-dimethylisoxazol-4-yl)-1-[(1-fluorocyclohexyl)methyl]pyrrolo[3,2-b]pyridin-3-yl]pyrimidin-2-amine] has an IC50 (MV-4-11 cells; MV-4-11, 3d growth) of less than 1 µM, an IC50 (bromodomain) of less than 10000 nM and an IC50 (BRD4-BD12 (1-477)) of less than 1 µM.

Work on `CC(C)n1cc(-c2cnc3ccn(CC4CCC(F)(F)CC4)c3c2)ccc1=O` [P-0518, 5-[1-[(4,4-difluorocyclohexyl)methyl]pyrrolo[3,2-b]pyridin-6-yl]-1-isopropyl-pyridin-2-one] yielded an IC50 (MV-4-11 cells; MV-4-11, 3d growth) of 10 to 200 µM, an IC50 (bromodomain) of less than 10000 nM and an IC50 (BRD4-BD12 (1-477)) of 1 to 10 µM.

Compound `Cc1noc(C)c1-c1cnc2c(-c3ccc(B(O)O)cc3)cn(CC3CCC(F)(F)CC3)c2c1` [P-0596, [4-[1-[(4,4-difluorocyclohexyl)methyl]-6-(3,5-dimethylisoxazol-4-yl)pyrrolo[3,2-b]pyridin-3-yl]phenyl]boronic acid] has an IC50 (MV-4-11 cells; MV-4-11, 3d growth) of less than 1 µM, an IC50 (bromodomain) of less than 10000 nM and an IC50 (BRD4-BD12 (1-477)) of less than 1 µM.

Work on `Cc1noc(C)c1-c1cnc2c(-c3ccc(NC(=O)NC4CC4)cc3)cn([C@@H](C)c3ccccn3)c2c1` [P-0564, 1-cyclopropyl-3-[4-[6-(3,5-dimethylisoxazol-4-yl)-1-[(1S)-1-(2-pyridyl)ethyl]pyrrolo[3,2-b]pyridin-3-yl]phenyl]urea] yielded an IC50 (MV-4-11 cells; MV-4-11, 3d growth) of less than 1 µM, an IC50 (bromodomain) of less than 10000 nM and an IC50 (BRD4-BD12 (1-477)) of less than 1 µM.

Compound `Cc1noc(C)c1-c1cnc2c(-c3ccc(C(=O)OC(C)(C)C)cc3)cn(S(=O)(=O)c3ccccc3)c2c1` [P-0374, tert-butyl 4-[1-(benzenesulfonyl)-6-(3,5-dimethylisoxazol-4-yl)pyrrolo[3,2-b]pyridin-3-yl]benzoate] has an IC50 (MV-4-11 cells) of 10 to 200 µM, an IC50 (bromodomain) of less than 10000 nM and an IC50 (BRD4-BD12 (1-477)) of 1 to 10 µM.

`Cn1cc(-c2cnc3c(-c4ccc(C(=O)O)cc4)cn(CC4CCC(F)(F)CC4)c3c2)ccc1=O` [P-0480, 4-[1-[(4,4-difluorocyclohexyl)methyl]-6-(1-methyl-6-oxo-3-pyridyl)pyrrolo[3,2-b]pyridin-3-yl]benzoic acid] was tested, and the IC50 (MV-4-11 cells; MV-4-11, 3d growth) was 1 to 10 µM, the IC50 (bromodomain) was less than 10000 nM and the IC50 (BRD4-BD12 (1-477)) was less than 1 µM.

In the case of `Cc1noc(C)c1-c1cnc2c(-c3cc(C(=O)O)cs3)cn(CC3CCC(F)(F)CC3)c2c1` [P-0486, 5-[1-[(4,4-difluorocyclohexyl)methyl]-6-(3,5-dimethylisoxazol-4-yl)pyrrolo[3,2-b]pyridin-3-yl]thiophene-3-carboxylic acid], the IC50 (MV-4-11 cells; MV-4-11, 3d growth) is reported as less than 1 µM, the IC50 (bromodomain) is reported as less than 10000 nM and the IC50 (BRD4-BD12 (1-477)) is reported as less than 1 µM.

With `Cc1noc(C)c1-c1cnc2c(c1)c(CC1CCC(F)(F)CC1)cn2-c1ccc(C(=O)O)cc1F` [P-0442, 4-[3-[(4,4-difluorocyclohexyl)methyl]-5-(3,5-dimethylisoxazol-4-yl)pyrrolo[2,3-b]pyridin-1-yl]-3-fluoro-benzoic acid] the IC50 (MV-4-11 cells; MV-4-11, 3d growth) was less than 1 µM, the IC50 (bromodomain) was less than 10000 nM and the IC50 (BRD4-BD12 (1-477)) was less than 1 µM.

Work on `COC(=O)c1ccc(-c2cn(C(c3ccccn3)c3ccccn3)c3cc(-c4c(C)noc4C)cnc23)cc1` [P-0574, methyl 4-[1-[bis(2-pyridyl)methyl]-6-(3,5-dimethylisoxazol-4-yl)pyrrolo[3,2-b]pyridin-3-yl]benzoate] yielded an IC50 (MV-4-11 cells; MV-4-11, 3d growth) of less than 1 µM, an IC50 (bromodomain) of less than 10000 nM and an IC50 (BRD4-BD12 (1-477)) of less than 1 µM.

`CNS(=O)(=O)c1ccc(-c2cn([C@@H](C)c3ccccn3)c3cc(-c4c(C)noc4C)cnc23)cc1` [P-0555, 4-[6-(3,5-dimethylisoxazol-4-yl)-1-[(1S)-1-(2-pyridyl)ethyl]pyrrolo[3,2-b]pyridin-3-yl]-N-methyl-benzenesulfonamide] was tested, and the IC50 (MV-4-11 cells; MV-4-11, 3d growth) was less than 1 µM, the IC50 (bromodomain) was less than 10000 nM and the IC50 (BRD4-BD12 (1-477)) was less than 1 µM.

`Cc1noc(C)c1-c1cnc2c(I)cn(CC3(F)CCC(F)(F)CC3)c2c1` [P-0448, 4-[3-iodo-1-[(1,4,4-trifluorocyclohexyl)methyl]pyrrolo[3,2-b]pyridin-6-yl]-3,5-dimethyl-isoxazole] gave an IC50 (MV-4-11 cells; MV-4-11, 3d growth) of less than 1 µM, an IC50 (bromodomain) of less than 10000 nM and an IC50 (BRD4-BD12 (1-477)) of less than 1 µM.

`Cc1noc(C)c1-c1cnc2c(-c3ccc(OCC(=O)O)cc3)cn(CC3(F)CCCCC3)c2c1` [P-0503, 2-[4-[6-(3,5-dimethylisoxazol-4-yl)-1-[(1-fluorocyclohexyl)methyl]pyrrolo[3,2-b]pyridin-3-yl]phenoxy]acetic acid] showed an IC50 (MV-4-11 cells; MV-4-11, 3d growth) of less than 1 µM, an IC50 (bromodomain) of less than 10000 nM and an IC50 (BRD4-BD12 (1-477)) of less than 1 µM.

With `Cc1noc(C)c1-c1cnc2c(-c3cnn(C(F)F)c3)cn(C(C)c3ccccn3)c2c1` (stereo not drawn) [P-0361, 4-[3-[1-(difluoromethyl)pyrazol-4-yl]-1-[1-(2-pyridyl)ethyl]pyrrolo[3,2-b]pyridin-6-yl]-3,5-dimethyl-isoxazole] the IC50 (MV-4-11 cells) was less than 1 µM, the IC50 (bromodomain) was less than 10000 nM and the IC50 (BRD4-BD12 (1-477)) was less than 1 µM.

Compound `Cc1noc(C)c1-c1cnc2c(-c3ccc(=O)n(C)c3)cn(CC3(F)CCCCC3)c2c1` [P-0471, 5-[6-(3,5-dimethylisoxazol-4-yl)-1-[(1-fluorocyclohexyl)methyl]pyrrolo[3,2-b]pyridin-3-yl]-1-methyl-pyridin-2-one] has an IC50 (MV-4-11 cells; MV-4-11, 3d growth) of less than 1 µM, an IC50 (bromodomain) of less than 10000 nM and an IC50 (BRD4-BD12 (1-477)) of less than 1 µM.

Compound `Cc1noc(C)c1-c1cnc2c(-c3cnn(CC(F)(F)F)c3)cn(Cc3ncccn3)c2c1` [P-0353, 3,5-dimethyl-4-[1-(pyrimidin-2-ylmethyl)-3-[1-(2,2,2-trifluoroethyl)pyrazol-4-yl]pyrrolo(3,2-b]pyridin-6-yl]isoxazole] has an IC50 (MV-4-11 cells) of less than 1 µM, an IC50 (bromodomain) of less than 10000 nM and an IC50 (BRD4-BD12 (1-477)) of less than 1 µM.

In the case of `Cc1noc(C)c1-c1cnc2c(-c3ccc([N+](=O)[O-])nc3)cn(CC3CCC(F)(F)CC3)c2c1` [P-0599, 4-[1-[(4,4-difluorocyclohexyl)methyl]-3-(6-nitro-3-pyridyl)pyrrolo[3,2-b]pyridin-6-yl]-3,5-dimethyl-isoxazole], the IC50 (MV-4-11 cells; MV-4-11, 3d growth) is reported as less than 1 µM, the IC50 (bromodomain) is reported as less than 10000 nM and the IC50 (BRD4-BD12 (1-477)) is reported as less than 1 µM.

Work on `Cc1noc(C)c1-c1cnc2c(-c3cnn(CC(=O)O)c3)cn(CC3CCC(F)(F)CC3)c2c1` [P-0482, 3-[4-[1-[(4,4-difluorocyclohexyl)methyl]-6-(3,5-dimethylisoxazol-4-yl)pyrrolo[3,2-b]pyridin-3-yl]pyrazol-1-yl]acetic acid] yielded an IC50 (MV-4-11 cells; MV-4-11, 3d growth) of 10 to 200 µM, an IC50 (bromodomain) of less than 10000 nM and an IC50 (BRD4-BD12 (1-477)) of less than 1 µM.

`COc1ncc(-c2cn(CC3(F)CCCCC3)c3cc(-c4c(C)noc4C)cnc23)cn1` [P-0464, 4-[1-[(1-fluorocyclohexyl)methyl]-3-(2-methoxypyrimidin-5-yl)pyrrolo[3,2-b]pyridin-6-yl]-3,5-dimethyl-isoxazole] gave an IC50 (MV-4-11 cells; MV-4-11, 3d growth) of less than 1 µM, an IC50 (bromodomain) of less than 10000 nM and an IC50 (BRD4-BD12 (1-477)) of less than 1 µM.

Work on `COC(=O)Cc1ccc(-c2cn(CC3CCCC3)c3cc(-c4c(C)noc4C)cnc23)cc1` [P-0588, methyl 2-[4-[1-(cyclopentylmethyl)-6-(3,5-dimethylisoxazol-4-yl)pyrrolo[3,2-b]pyridin-3-yl]phenyl]acetate] yielded an IC50 (MV-4-11 cells; MV-4-11, 3d growth) of less than 1 µM, an IC50 (bromodomain) of less than 10000 nM and an IC50 (BRD4-BD12 (1-477)) of less than 1 µM.

`CNC(=O)c1ccc(-n2cc(CC3CCC(F)(F)CC3)c3cc(-c4c(C)noc4C)cnc32)nc1` [P-0532, 6-[3-[(4,4-difluorocyclohexyl)methyl]-5-(3,5-dimethylisoxazol-4-yl)pyrrolo[2,3-b]pyridin-1-yl]-N-methyl-pyridine-3-carboxamide] showed an IC50 (MV-4-11 cells; MV-4-11, 3d growth) of less than 1 µM, an IC50 (bromodomain) of less than 10000 nM and an IC50 (BRD4-BD12 (1-477)) of less than 1 µM.

`Cc1noc(C)c1-c1cnc2c(-c3cnc(N)cn3)cn(CC3(F)CCCCC3)c2c1` [P-0472, 5-[6-(3,5-dimethylisoxazol-4-yl)-1-[(1-fluorocyclohexyl)methyl]pyrrolo[3,2-b]pyridin-3-yl]pyrazin-2-amine] was tested, and the IC50 (MV-4-11 cells; MV-4-11, 3d growth) was less than 1 µM, the IC50 (bromodomain) was less than 10000 nM and the IC50 (BRD4-BD12 (1-477)) was less than 1 µM.
